Reference: patent US4443536A, “Nondiffusible photographic couplers and photographic elements and processes employing same” (Eastman Kodak Company, priority 1982, dated 1984)
Several values for one entry are separate records, joined by “and”; a condition that tells them apart may be missing. Equal values may be shown once.

Assay: Dye hue from spectrophotometric curves: λ-max, half band width, curve shape factor
Settings: for CSF (curve shape factor, 100 X TBW/HBW) / HBW (half band width) / λ-max (maximum absorption peak of dye): Table I; for CSF / HBW / λ-max: Table II
Description: Photographic elements containing couplers of this invention and control couplers were prepared and tested according to the procedures described below.
The photosensitive layer was overcoated with a layer containing gelatin at 1.08 g/m^2 and bis-vinyl-sulfonylmethyl ether at 1.75 weight percent based on total gelatin.
Samples of each element were imagewise exposed through a graduated-density test object and processed at 40° C. employing one of three color developing solutions identified below then stopped, bleached, fixed and washed.
In each element, well-defined, dye images were produced which were evaluated by plotting dye density vs. log exposure sensitometric curves and recording the maximum dye density (Dmax) and gamma (γ) i.e., the contrast determined by the slope of the straight line portion of the curve. Additionally, dye hues were evaluated from spectrophotometric curves by measuring the maximum absorption peak (λmax) normalized to a density of 1.0 and the half band width (HBW). Halfband width is the width, in nanometers, of the spectrophotometric curve at one-half the difference between maximum density and stain. Similarly, the top-band width (TBW) and bottom-band width (BBW) of the curve were measured at three-fourths and one-fourth, respectively, of the normalized density. Curve shape factor (CSF) equals 100 X TBW/HBW and provides a ratio of the width near the top and bottom of the absorption curve. The greater this ratio, the steeper are the sides of the absorption peak, and the more efficient is the dye's absorption of light in its spectral region.
Photographic elements containing additional couplers of this invention were prepared, processed and evaluated as described above in connection with Examples 1-14.

[1] = coupler solvent CS-1, developer D-1
[2] = coupler solvent CS-2, developer D-2
[3] = coupler solvent CS-2, developer D-3
[4] = coupler solvent CS-3, developer D-2
[5] = coupler solvent CS-3, developer D-1
[6] = coupler solvent CS-3, developer D-3
[7] = coupler solvent CS-4, developer D-3

CCCCCCCCCCCCCCCc1cccc(OC(CC)C(=O)NC2=NN(c3c(C)cc(C)cc3Cl)C(=O)C2)c1 (stereo not drawn) [CC-1, reference compound]
CSF (curve shape factor, 100 X TBW/HBW) [1]: 43.3 and 43.6 and 43.1 | HBW (half band width) [1]: 94 nanometers | λ-max (maximum absorption peak of dye) [1]: 531

CCCCCCCCCCCCC(Oc1ccc(O)c(C(C)(C)C)c1)C(=O)Nc1ccc(Cl)c(NC2=NN(c3c(Cl)cc(Cl)cc3Cl)C(=O)C2)c1 (stereo not drawn) [CC-2, reference compound]
CSF (curve shape factor, 100 X TBW/HBW) [2]: 46.3 and 39.5 and 39.9 | HBW (half band width) [2]: 81 nanometers and 79 nanometers and 78 nanometers | λ-max (maximum absorption peak of dye) [2]: 539 and 540 | CSF (curve shape factor, 100 X TBW/HBW) [3]: 40.4 | HBW (half band width) [3]: 79 nanometers | λ-max (maximum absorption peak of dye) [3]: 545

CCC(C)(C)c1ccc(OCC(=O)Nc2cccc(C(=O)NC3=NN(c4c(Cl)cc(Cl)cc4Cl)C(=O)C3)c2)c(C(C)(C)CC)c1 [CC-3, reference compound]
CSF (curve shape factor, 100 X TBW/HBW) [3]: 45.3 | HBW (half band width) [3]: 88 nanometers | λ-max (maximum absorption peak of dye) [3]: 556

CCc1c(Cl)cc(NC(=O)C(CC)Oc2ccc(C(C)(C)CC)cc2C(C)(C)CC)c(O)c1Cl (stereo not drawn) [CC-4, reference compound]
CSF (curve shape factor, 100 X TBW/HBW) [4]: 45.2 | HBW (half band width) [4]: 141 nanometers | λ-max (maximum absorption peak of dye) [4]: 659

CCCCCCCCCCCCCCCCS(=O)(=O)Nc1ccc(Cl)c(NC(=O)C(Oc2ccc(S(=O)(=O)c3ccc(OCc4ccccc4)cc3)cc2)C(=O)C(C)(C)C)c1 (stereo not drawn) [CC-5, reference compound]
CSF (curve shape factor, 100 X TBW/HBW) [4]: 43.5 | HBW (half band width) [4]: 88 nanometers | λ-max (maximum absorption peak of dye) [4]: 446

CCC(C)(C)c1ccc(OCCCC(=O)Nc2ccc(Cl)c(NC(=O)C(Oc3ccc(S(=O)(=O)c4ccc(OCc5ccccc5)cc4)cc3)C(=O)C(C)(C)C)c2)c(C(C)(C)CC)c1 (stereo not drawn) [CC-6, reference compound]
CSF (curve shape factor, 100 X TBW/HBW) [4]: 42.0 | HBW (half band width) [4]: 85 nanometers | λ-max (maximum absorption peak of dye) [4]: 441

CCCCC(Oc1ccc(S(=O)(=O)c2ccc(OCc3ccccc3)cc2)cc1)C(=O)Nc1ccc(Cl)c(NC(=O)C(Oc2ccc(S(=O)(=O)c3ccc(O)cc3)cc2)C(=O)C(C)(C)C)c1 (stereo not drawn) [CC-7, reference compound]
CSF (curve shape factor, 100 X TBW/HBW) [4]: 45.2 | HBW (half band width) [4]: 85 nanometers | λ-max (maximum absorption peak of dye) [4]: 445

CCCCC(Oc1ccc(S(=O)(=O)c2ccc(OCc3ccccc3)cc2)cc1)C(=O)Nc1cccc(NC(=O)C(Oc2ccc(S(=O)(=O)c3ccc(O)cc3)cc2)C(=O)C(C)(C)C)c1 (stereo not drawn) [CC-8, reference compound]
CSF (curve shape factor, 100 X TBW/HBW) [4]: 44.3 | HBW (half band width) [4]: 90 nanometers | λ-max (maximum absorption peak of dye) [4]: 439

CCCCCCCCCCC(Oc1ccc(S(=O)(=O)c2ccc(OCc3ccccc3)cc2)cc1)C(=O)Nc1ccc(Cl)c(NC(=O)C(Oc2ccc(S(=O)(=O)c3ccc(O)cc3)cc2)C(=O)C(C)(C)C)c1 (stereo not drawn) [CC-9, reference compound]
CSF (curve shape factor, 100 X TBW/HBW) [5]: 43.8 | HBW (half band width) [5]: 87 nanometers | λ-max (maximum absorption peak of dye) [5]: 450

CCCCCCCCCCCCC(Oc1ccc(S(=O)(=O)c2ccc(O)cc2)cc1)C(=O)Nc1ccc(NC(=O)CCC)c(O)c1 (stereo not drawn) [Coupler C-2]
CSF [5]: 45.7% | HBW [5]: 144 nm | λ-max [5]: 655 nm

CCCCCCCCCCCCC(Oc1ccc(S(=O)(=O)c2ccc(O)cc2)cc1)C(=O)Nc1ccc(NC(=O)C(F)(F)F)c(O)c1 (stereo not drawn) [Coupler C-3]
CSF [4]: 47.8% | HBW [4]: 161 nm | λ-max [4]: 659 nm

CCCCCCCCCCC(Oc1ccc(S(=O)(=O)c2ccc(O)cc2)cc1)C(=O)Nc1cc(O)c(NC(=O)Nc2cccc(S(=O)(=O)NCCCC)c2)cc1OC (stereo not drawn) [Coupler C-13]
CSF [6]: 44.4% | HBW [6]: 135 nm | λ-max [6]: 702 nm

CCCCCCCCCCC(Oc1ccc(S(=O)(=O)c2ccc(O)cc2)cc1)C(=O)Nc1cc(Cl)c(CC)c(Cl)c1O (stereo not drawn) [Coupler C-31]
CSF (curve shape factor, 100 X TBW/HBW) [4]: 47.0 | HBW (half band width) [4]: 160 nanometers | λ-max (maximum absorption peak of dye) [4]: 675

CCCCCCCCCCCCC(Oc1ccc(S(=O)(=O)c2ccc(O)cc2)cc1)C(=O)NC1=NN(c2c(Cl)cc(Cl)cc2Cl)C(=O)C1 (stereo not drawn) [Coupler M-3]
CSF (curve shape factor, 100 X TBW/HBW) [1]: 46.0 | HBW (half band width) [1]: 96 nanometers | λ-max (maximum absorption peak of dye) [1]: 546 | CSF [1]: 45.7% | HBW [1]: 96 nm | λ-max [1]: 546 nm

CCCCCCCCCCC(Oc1ccc(S(=O)(=O)c2ccc(O)cc2)cc1)C(=O)Nc1ccc(CCCc2n[nH]c3cc(C)nn23)cc1 (stereo not drawn) [Coupler M-8]
CSF (curve shape factor, 100 X TBW/HBW) [3]: 50.5 | HBW (half band width) [3]: 86 nanometers | λ-max (maximum absorption peak of dye) [3]: 550

CCCCCCCCCCC(Oc1ccc(S(=O)(=O)c2ccc(O)cc2)cc1)C(=O)Nc1ccc(CCCc2n[nH]c3c(Cl)c(C)nn23)cc1 (stereo not drawn) [Coupler M-9]
CSF [7]: 44.2% | HBW [7]: 90 nm | λ-max [7]: 558 nm

CCCCCCCCCCCCC(Oc1ccc(S(=O)(=O)c2ccc(O)cc2)cc1)C(=O)Nc1ccc(Cl)c(NC2=NN(c3c(Cl)cc(Cl)cc3Cl)C(=O)C2)c1 (stereo not drawn) [Coupler M-27]
CSF (curve shape factor, 100 X TBW/HBW) [1]: 47.0 | HBW (half band width) [1]: 91 nanometers | λ-max (maximum absorption peak of dye) [1]: 545

CCCCCCCCCCC(Oc1ccc(S(=O)(=O)c2ccc(O)cc2)cc1)C(=O)Nc1ccc(Cl)c(NC2=NN(c3c(Cl)cc(Cl)cc3Cl)C(=O)C2)c1 (stereo not drawn) [Coupler M-28]
CSF (curve shape factor, 100 X TBW/HBW) [1]: 46.7 | HBW (half band width) [1]: 92 nanometers | λ-max (maximum absorption peak of dye) [1]: 549 | CSF (curve shape factor, 100 X TBW/HBW) [2]: 46.5 | HBW (half band width) [2]: 93 nanometers | λ-max (maximum absorption peak of dye) [2]: 541 | CSF (curve shape factor, 100 X TBW/HBW) [3]: 46.4 | HBW (half band width) [3]: 94 nanometers | λ-max (maximum absorption peak of dye) [3]: 549 | CSF [3]: 42.6% | HBW [3]: 94 nm | λ-max [3]: 549 nm

CCCCCCCCCCC(Oc1ccc(S(=O)(=O)c2ccc(O)cc2)cc1)C(=O)Nc1ccc(Cl)c(NC2=NN(c3c(Cl)cc(Cl)cc3Cl)C(=O)C2SCCCCCCC)c1 (stereo not drawn) [Coupler M-29]
CSF (curve shape factor, 100 X TBW/HBW) [2]: 46.7 | HBW (half band width) [2]: 88 nanometers | λ-max (maximum absorption peak of dye) [2]: 540 | CSF (curve shape factor, 100 X TBW/HBW) [3]: 40.9 | HBW (half band width) [3]: 90 nanometers | λ-max (maximum absorption peak of dye) [3]: 545

CCCCCCCCCCC(CN(C)S(=O)(=O)c1ccc(NC2=NN(c3c(Cl)cc(S(=O)(=O)N(C)C)cc3Cl)C(=O)C2)c(Cl)c1)Oc1ccc(S(=O)(=O)c2ccc(O)cc2)cc1 (stereo not drawn) [Coupler M-32]
CSF (curve shape factor, 100 X TBW/HBW) [2]: 40.9 | HBW (half band width) [2]: 82 nanometers | λ-max (maximum absorption peak of dye) [2]: 549

CC(C)(C)C(=O)C(Oc1ccc(S(=O)(=O)c2ccc(OCc3ccccc3)cc2)cc1)C(=O)Nc1cc(NS(=O)(=O)c2ccc(O)cc2)ccc1Cl (stereo not drawn) [Coupler Y-1]
CSF (curve shape factor, 100 X TBW/HBW) [4]: 43.7 | HBW (half band width) [4]: 88 nanometers | λ-max (maximum absorption peak of dye) [4]: 449

CCCCC(Oc1ccc(S(=O)(=O)c2ccc(O)cc2)cc1)C(=O)Nc1ccc(Cl)c(NC(=O)C(Oc2ccc(S(=O)(=O)c3ccc(O)cc3)cc2)C(=O)C(C)(C)C)c1 (stereo not drawn) [Coupler Y-2]
CSF (curve shape factor, 100 X TBW/HBW) [4]: 44.4 | HBW (half band width) [4]: 90 nanometers | λ-max (maximum absorption peak of dye) [4]: 445

CCCCC(Oc1ccc(S(=O)(=O)c2ccc(O)cc2)cc1)C(=O)Nc1cccc(NC(=O)C(Oc2ccc(S(=O)(=O)c3ccc(O)cc3)cc2)C(=O)C(C)(C)C)c1 (stereo not drawn) [Coupler Y-3]
CSF (curve shape factor, 100 X TBW/HBW) [4]: 44.4 | HBW (half band width) [4]: 93 nanometers | λ-max (maximum absorption peak of dye) [4]: 441

CCCCCCCCCCC(Oc1ccc(S(=O)(=O)c2ccc(O)cc2)cc1)C(=O)Nc1ccc(Cl)c(NC(=O)C(Oc2ccc(S(=O)(=O)c3ccc(O)cc3)cc2)C(=O)C(C)(C)C)c1 (stereo not drawn) [Coupler Y-4]
CSF (curve shape factor, 100 X TBW/HBW) [5]: 44.6 | HBW (half band width) [5]: 90 nanometers | λ-max (maximum absorption peak of dye) [5]: 450
